Publication PMC5515969, “Effects of 31 FDA approved small-molecule kinase inhibitors on isolated rat liver mitochondria” (Archives of Toxicology, 2016)
Where two headings read alike, the source gives them in different places. Marks after values point to notes of the source that are not given here.

Tests used:
[1] = tested on: isolated rat liver mitochondria; assay: Mitochondrial oxygen consumption (glutamate/malate or succinate driven, state 4 and state 3); assay type: biochemical; details: for Glutamate/malate driven respiration State 3 / Glutamate/malate driven respiration State 4 / Succinate-driven respiration State 3 / Succinate-driven respiration State 4: oxygen consumption, DMSO-treated = 1; as to State 3 respiration driven by succinate at 10XCmax: key: 0 indicates that the drug had no effects (negative); as to State 3 respiration driven by succinate at 1XCmax: key: 0 indicates that the drug had no effects (negative)
Procedure, shortened: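 Oxygen uptake on glutamate/malate or on succinate defined state 4; ADP added 3 min later gave state 3. Mitochondria isolated from rat liver by differential centrifugation, adjusted to 1 mg/ml and pretreated 5 min with inhibitor (0.1% DMSO final). Values relative to DMSO control, set to 1.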

[2] = tested on: isolated rat liver mitochondria; assay: Mitochondrial toxicity, any endpoint, intact mitochondria and submitochondrial particles; assay type: biochemical; details: for lowest concentration causing significant mitochondrial toxicity: any endpoint
Procedure: Rats were anesthetized by an intraperitoneal injection of Nembutal and the liver perfused with PBS to remove the blood. The liver was then cut into small pieces and homogenized using a Dounce type homogenizer in the ice-cold isolation buffer (IB) containing 200 mM sucrose, 10 mM Tris-MOPS, 1 mM EGTA (pH 7.4). The sample was then centrifuged at 600g for 10 min. The supernatant was further centrifuged at 7500g for 10 min, and the pellets was washed once with the IB and centrifuged again at 7500g for 10 min to collect mitochondria. […] Before drug treatment, the protein concentration was adjusted to 1 mg/ml using appropriate buffer. […] Briefly, mitochondrial and cytosolic fractions from four different preparations using four rats were diluted using the Laemmli protein loading buffer and subject to SDS-PAGE with 4–20% gradient gels. The proteins were blotted to PVDF membranes and detected using antibodies against GAPDH, ATP5A, UQCRC2, SDHB, and NDUFB8.
The aliquoted stock solutions were kept for less than one month and each tube was used only once. The KIs were added to the mitochondria at 1:1000 dilutions. […] The Cmax data were from clinical trials which used FDA recommend dosages, route of administration, and duration. […] The final concentration of DMSO for drug treatment was always 0.1%, and control treatments were 0.1% DMSO.

[3] = tested on: isolated rat liver mitochondria; details: for lowest concentration causing cytochrome c release: rat, 30 min, pH 7.4
[4] = cited from earlier work
[5] = cited from earlier work; remark: listed apart in the source
[6] = tested on: isolated rat liver mitochondria; assay: Mitochondrial ROS production (CM-H2DCFDA)
RCC I = RCC I activity in submitochondrial particles; assay type: biochemical, rat; design: key to RCC I at 10XCmax / RCC I at 100XCmax / RCC I at 50XCmax / RCC I at 30XCmax / RCC I at 20XCmax: activity relative to DMSO-treated controls (control set as 1 = 100%)
Procedure, shortened: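 Kinase inhibitors were preincubated 15 min with submitochondrial particles (1 mg/ml) before complex activities were measured. RCC I was the rotenone-sensitive portion (activity without minus with rotenone). RCC I/V was read at 340 nm and RCC II at 600 nm every 1 min for 6 min. RCC III and IV were read at 550 nm every 10 s for 2 min. Activities are normalized to DMSO controls set as 1.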

RCC II = target: T1, RCC II (Rattus norvegicus, UniProt P21913+Q641Z9+Q6PCT8+Q920L2); assay: RCC II activity in submitochondrial particles; assay type: biochemical; design: key: activity relative to DMSO-treated controls (control set as 1 = 100%); details: DMSO treated samples set as 1
T1 construct: Submitochondrial particles were prepared by subjecting the intact mitochondria to three successive freeze–thaw cycles; from tissue; host or cells: rat liver mitochondria, used as submitochondrial particles
Procedure, shortened: (§1)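 Absorbance kinetics: A340 (RCC I, V) and A600 (RCC II) read each minute over 6 min, A550 (RCC III, IV) every 10 s over 2 min; RCC I taken as […]. Particles (1 mg/ml) pretreated 15 min with compound; DMSO-treated activity = 1.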

RCC V = RCC V activity in submitochondrial particles; assay type: biochemical, rat; details: 5XCmax; DMSO treated samples set as 1; also: key: 0 indicates that the drug had no effects (negative)
Procedure, shortened: as §1

[7] = tested on: isolated rat liver mitochondria; assay: Mitochondrial inner membrane potential (MMP), Rhodamine 123; assay type: biochemical; details: difference in signal between KI and DMSO treated samples at the end of experiments
Text: Fig. 3 KI effects on mitochondrial inner membrane potential (MMP). […] In a, c, data are means and standard derivations from three separate experiments. *p < 0.05 as compared to DMSO-treated samples at the end of experiments. In b, data are means of two independent experiments

[8] = tested on: isolated rat liver mitochondria; assay: Mitochondrial swelling (absorbance at 535 nm); assay type: biochemical; details: difference in signal between KI and DMSO treated samples at the end of experiments; as to Swelling 5XCmax: key: 0 indicates that the drug had no effects (negative)
[9] = ref product labeling; cited from earlier work
[10] = human therapeutic Cmax at FDA recommended dosages, ref product labeling and drug approval packages at the official FDA website
[11] = 1XCmax, DMSO treated samples set as 1
[12] = 2.5XCmax, DMSO treated samples set as 1
[13] = 5XCmax, DMSO treated samples set as 1
[14] = 10XCmax, DMSO treated samples set as 1
[15] = 20XCmax, DMSO treated samples set as 1
[16] = 30XCmax, DMSO treated samples set as 1

T1 sequence (Q920L2 35-656): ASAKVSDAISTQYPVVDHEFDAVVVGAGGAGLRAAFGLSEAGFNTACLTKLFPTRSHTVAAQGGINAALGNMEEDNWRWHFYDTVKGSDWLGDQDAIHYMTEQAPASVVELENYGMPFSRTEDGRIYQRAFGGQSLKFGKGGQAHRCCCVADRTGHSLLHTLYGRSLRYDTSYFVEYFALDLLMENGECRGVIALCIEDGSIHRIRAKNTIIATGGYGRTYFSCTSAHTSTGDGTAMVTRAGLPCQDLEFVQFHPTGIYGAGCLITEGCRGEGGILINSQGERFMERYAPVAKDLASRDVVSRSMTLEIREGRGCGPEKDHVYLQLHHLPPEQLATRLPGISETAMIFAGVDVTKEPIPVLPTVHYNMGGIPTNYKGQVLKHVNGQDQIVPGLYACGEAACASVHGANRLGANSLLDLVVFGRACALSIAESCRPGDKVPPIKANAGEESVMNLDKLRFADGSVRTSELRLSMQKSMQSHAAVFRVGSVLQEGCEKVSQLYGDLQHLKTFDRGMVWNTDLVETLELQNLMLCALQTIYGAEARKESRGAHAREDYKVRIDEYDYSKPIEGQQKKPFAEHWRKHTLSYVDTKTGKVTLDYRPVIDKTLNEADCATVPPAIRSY
T1 sequence (P21913 31-282): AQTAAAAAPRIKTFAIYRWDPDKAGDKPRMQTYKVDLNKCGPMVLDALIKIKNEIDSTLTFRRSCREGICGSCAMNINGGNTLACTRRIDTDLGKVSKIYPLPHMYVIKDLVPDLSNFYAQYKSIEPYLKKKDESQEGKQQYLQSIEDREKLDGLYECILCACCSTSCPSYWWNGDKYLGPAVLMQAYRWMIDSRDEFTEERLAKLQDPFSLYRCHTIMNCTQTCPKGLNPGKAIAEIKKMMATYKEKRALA
T1 sequence (Q641Z9 1-169): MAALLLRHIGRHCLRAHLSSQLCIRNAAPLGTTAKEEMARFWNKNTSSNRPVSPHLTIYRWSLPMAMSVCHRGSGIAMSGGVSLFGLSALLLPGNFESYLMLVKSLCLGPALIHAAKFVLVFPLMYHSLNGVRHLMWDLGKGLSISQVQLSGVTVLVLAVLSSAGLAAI
T1 sequence (Q6PCT8 57-159): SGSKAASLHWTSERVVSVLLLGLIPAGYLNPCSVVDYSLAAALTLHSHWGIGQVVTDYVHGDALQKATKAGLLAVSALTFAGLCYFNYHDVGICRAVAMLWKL

N#CC[C@H](C1CCCC1)n1cc(-c2ncnc3[nH]ccc23)cn1 [Ruxolitinib]
Glutamate/malate driven respiration State 3 ([1]; 20-fold Cmax): 0.62 ± 0.05
Glutamate/malate driven respiration State 4 ([1]; 20-fold Cmax): 0.81 ± 0.05
Succinate-driven respiration State 3 ([1]; 20-fold Cmax): 0.90 ± 0.13
Succinate-driven respiration State 4 ([1]; 20-fold Cmax): 1.00 ± 0.14
Glutamate/malate driven respiration State 3 ([1]; 30-fold Cmax): 0.54 ± 0.02
Glutamate/malate driven respiration State 4 ([1]; 30-fold Cmax): 1.00 ± 0.09
Succinate-driven respiration State 3 ([1]; 30-fold Cmax): 1.05 ± 0.11
Succinate-driven respiration State 4 ([1]; 30-fold Cmax): 1.08 ± 0.09
Glutamate/malate driven respiration State 3 ([1]; 50-fold Cmax): 0.49 ± 0.06
Glutamate/malate driven respiration State 4 ([1]; 50-fold Cmax): 0.97 ± 0.20
Succinate-driven respiration State 3 ([1]; 50-fold Cmax): 0.87 ± 0.08
Succinate-driven respiration State 4 ([1]; 50-fold Cmax): 1.07 ± 0.07
Glutamate/malate driven respiration State 3 ([1]; 100-fold Cmax): 0.28 ± 0.06
Glutamate/malate driven respiration State 4 ([1]; 100-fold Cmax): 0.71 ± 0.08
Succinate-driven respiration State 3 ([1]; 100-fold Cmax): 0.99 ± 0.03
Succinate-driven respiration State 4 ([1]; 100-fold Cmax): 1.17 ± 0.12
lowest concentration significantly affecting mitochondrial oxygen consumption ([1]; tested at 1 to 100-fold Cmax): 20 fold Cmax
lowest concentration causing significant mitochondrial toxicity [2]: 20 fold Cmax
lowest concentration causing cytochrome c release [3]: 50 fold Cmax
Cmax [4, 10]: 1.2 µM
DILI potential (based on labeling) ([5]; ref FDA product labeling): 0

C=CC(=O)Nc1cc(Nc2nccc(-c3cn(C)c4ccccc34)n2)c(OC)cc1N(C)CCN(C)C [Osimertinib]
lowest concentration causing significant mitochondrial toxicity [2]: 30 fold Cmax
lowest concentration causing cytochrome c release [3]: 100 fold Cmax
Cmax [4, 10]: 0.5 µM
lowest concentration triggering ROS overproduction [6]: 30 fold Cmax

CCN(CC)CCNC(=O)c1c(C)[nH]c(/C=C2\C(=O)Nc3ccc(F)cc32)c1C [Sunitinib]
effects on intact mitochondria or submitochondrial particles ([2]; highest concentrations tested): no effects
Cmax [4, 10]: 0.12 µM
Cmax ([4]; ref Porceddu et al. [2012]): 70.8 µM
labeling for DILI ([5]; W&P warnings and precautions, BBW black box warnings, ref FDA product labeling): BBW: fatal DILI
DILI potential (based on labeling) ([5]; ref FDA product labeling): 1

COc1cc2nccc(Oc3ccc(NC(=O)C4(C(=O)Nc5ccc(F)cc5)CC4)cc3)c2cc1OC [cabozantinib malate]
State 3 respiration driven by succinate at 1XCmax [1, 11]: 0
State 4 respiration driven by succinate at 1XCmax [1, 11]: 0
State 3 respiration driven by succinate at 2.5XCmax [1, 12]: 0
State 4 respiration driven by succinate at 2.5XCmax [1, 12]: 0
State 3 respiration driven by succinate at 5XCmax [1, 13]: 0
State 4 respiration driven by succinate at 5XCmax [1, 13]: 0
State 3 respiration driven by succinate at 10XCmax [1, 14]: 0
State 4 respiration driven by glutamate/malate at 10XCmax [1, 14]: 1.46±0.08
State 4 respiration driven by succinate at 10XCmax [1, 14]: 1.23±0.11
State 3 respiration driven by succinate at 20XCmax [1, 15]: 0
State 4 respiration driven by glutamate/malate at 20XCmax [1, 15]: 1.30±0.15
State 4 respiration driven by succinate at 20XCmax [1, 15]: 1.24±0.05
State 3 respiration driven by succinate at 30XCmax [1, 16]: 0
State 4 respiration driven by glutamate/malate at 30XCmax [1, 16]: 1.55±0.06
State 4 respiration driven by succinate at 30XCmax [1, 16]: 1.35±0.18
RCC I at 10XCmax (RCC I; [14]): 0
RCC I at 30XCmax (RCC I; 30XCmax, DMSO-treated = 100): 80.97±2.99
RCC II at 1.0XCmax (RCC II; 1.0XCmax): 0
RCC II at 2.5XCmax (RCC II; 2.5XCmax): 0
RCC II at 5XCmax (RCC II; 5XCmax): 0
RCC II at 10XCmax (RCC II; 10XCmax): 0
RCC II at 20XCmax (RCC II; 20XCmax): 0
RCC II at 30XCmax (RCC II; 30XCmax): 79.26±6.01
RCC V at 5XCmax (RCC V): 0
MMP measured by Rhodamine 123 at 1XCmax ([7]; 1XCmax): 0
MMP measured by Rhodamine 123 at 2.5XCmax ([7]; 2.5XCmax): 0
MMP measured by Rhodamine 123 at 5XCmax ([7]; 5XCmax): 0
MMP measured by Rhodamine 123 at 10XCmax ([7]; 10XCmax): 945±179*
MMP measured by Rhodamine 123 at 20XCmax ([7]; 20XCmax): 1828±818*
MMP measured by Rhodamine 123 at 30XCmax ([7]; 30XCmax): 2071±803*
Swelling 1XCmax ([8]; 1XCmax): 0
Swelling 2.5XCmax ([8]; 2.5XCmax): 0
Swelling 5XCmax ([8]; 5XCmax): 0
Swelling 10XCmax ([8]; 10XCmax): 0
Swelling 20XCmax ([8]; 20XCmax): 0.48±0.01
Swelling 30XCmax ([8]; 30XCmax): 0.46±0.01
Cytochrome c release 1XCmax ([3]; 1XCmax, positive control alamethicin treated samples): 0
Cytochrome c release 2.5XCmax ([3]; 2.5XCmax, positive control alamethicin treated samples): 0
Cytochrome c release 5XCmax ([3]; 5XCmax, positive control alamethicin treated samples): 0
Cytochrome c release 10XCmax ([3]; 10XCmax, positive control alamethicin treated samples): 0
Cytochrome c release 20XCmax ([3]; 20XCmax, positive control alamethicin treated samples): 0
Cytochrome c release 30XCmax ([3]; 30XCmax, positive control alamethicin treated samples): 0
Cmax (ng or µg/ml) ([4]; human therapeutic maximal blood concentration, ref product labeling): 1.64 µg/mL
Cmax ([4]; read-out: Cmax at µM, human therapeutic maximal blood concentration, ref product labeling): 2.58 µM
DILI potential (based on labeling) ([5]; 1 DILI positive, 0 negative according to labeling, ref product labeling): 0
Potential for cardiotoxicity (based on labeling) [9]: 0
ROS measured by CM-H2DCFDA at 1XCmax [6, 11]: 0
ROS measured by CM-H2DCFDA at 2.5XCmax [6, 12]: 0
ROS measured by CM-H2DCFDA at 5XCmax [6, 13]: 0
ROS measured by CM-H2DCFDA at 10XCmax [6, 14]: 0
ROS measured by CM-H2DCFDA at 20XCmax [6, 15]: 0
ROS measured by CM-H2DCFDA at 30XCmax [6, 16]: 0

CS(=O)(=O)CCNCc1ccc(-c2ccc3ncnc(Nc4ccc(OCc5cccc(F)c5)c(Cl)c4)c3c2)o1 [Lapatinib]
mitochondrial injury ([2]; concentrations equal to 100-fold Cmax): mitochondrial injury was induced
labeling for DILI ([5]; in vivo): BBW: fatal DILI
DILI potential (based on labeling) ([5]; ref FDA product labeling): 1
